Measurements from ChEMBL document CHEMBL1148078, “Isolation of Spongosine and 2'-Deoxyspongosine from a Western Australian Sponge of the Order Hadromerida (Tethyidae)” (J Nat Prod, 1994).
Active and inactive are the calls of the source.

Columns and labels:
Type in all cases: functional, organism-based
[1] = system: Saccharomyces pastorianus; test: Antimicrobial activity against Saccharomyces carlsbergensis at 200 ug/disk by disk diffusion assay
[2] = system: Escherichia coli; test: Antimicrobial activity against Escherichia coli at 200 ug/disk by disk diffusion assay
[3] = system: Pseudomonas aeruginosa; test: Antimicrobial activity against Pseudomonas aeruginosa at 200 ug/disk by disk diffusion assay
[4] = system: Candida albicans; test: Antimicrobial activity against Candida albicans at 200 ug/disk by disk diffusion assay
[5] = system: Staphylococcus aureus; test: Antimicrobial activity against Staphylococcus aureus at 200 ug/disk by disk diffusion assay

Measured: Activity

COc1nc(N)c2ncn([C@@H]3O[C@H](CO)[C@@H](O)[C@H]3O)c2n1
inactive: all assays above

COc1nc(N)c2ncn([C@H]3C[C@H](O)[C@@H](CO)O3)c2n1
inactive: all assays above
